Literature values, collected in patent publication US12102684B2, “Methods of making and using polyphenols complexed with a protein, peptide, amino acid, polysaccharide, disaccharide, or monosaccharide” (priority 2016, dated 2024).

Assays:
[1] = previous studies

Structure (SMILES): Oc1ccc(/C=C/c2cc(O)cc(O)c2)cc1 [Resveratrol, 3,5,4′-trihydroxy-trans-stilbene]
- solubility in organic solvents (organic solvents (methanol, acetone, DMSO, etc.)): 16-50 grams/liter
- solubility in water: 0.03 grams/liter

Structure (SMILES): COc1cc([C@@H]2Oc3c(O)cc([C@H]4Oc5cc(O)cc(O)c5C(=O)[C@@H]4O)cc3[C@H]2CO)ccc1O [Silychristin]
- solubility in water: water insoluble

Structure (SMILES): COc1cc(/C=C/C(=O)CC(=O)/C=C/c2ccc(O)c(OC)c2)ccc1O [curcumin, (1E,6E)-1,7-bis(4hydroxy-3-methoxyphenyl)hepta-1,6-diene-3,5-dione]
- oral clearance [1]: 1808 mL/min/kg
- solubility in water: very poor
